Common to all, as to test: NCI tumour cell line growth inhibition, 48 h
The subject of assay [1] is HOP-92 NSCLC.
In assay [2] the test system is 786-0 renal.
In assay [3] the test system is EKVX NSCLC.
For assay [4], the system named is HL-60(TB) leukemia.
Assay [5] concerns NCI-H226 lung.
Assay [6] has as its system NCI-H460 lung.
In assay [7] the test system is COLO 205 colon.
Assay [8] relates to UO-31 renal.
Assay [9] relates to TK-10 renal.
The subject of assay [10] is NCI-H522 lung.

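In this assay, cells in 96-well plates receive the compound at five concentrations for 48 hours. Endpoints are linearly interpolated between the surrounding concentrations. GI50 is the concentration that inhibits growth by half. TGI: total growth inhibition.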

Consider `CCOC(=O)CCC(NC(=O)c1ccc(Oc2nc3cc(N)cc(N)c3nc2-c2ccccc2)cc1)C(=O)OCC` (centres undefined), for which the GI50 in assay [1] was 30.1 µM; in [2], 89 µM; in [3], 62 µM; in [4], 31.5 µM; in [5], 2.94 µM; in [6], 96.2 µM. The GI50 is 29.9 µM in assay [7], 48.7 µM in [8], greater than 100 µM in assay [9] and 27.5 µM in assay [10]. In addition, the TGI was greater than 100 µM in assay [1]; greater than 100 µM in assay [2]; greater than 100 µM in assay [3]; 95 µM in assay [4]; 25 µM in assay [5]; greater than 100 µM in assay [6]. In addition, the TGI in assay [7], in [8], in assay [9] and in [10] was greater than 100 µM each time.

Turning to `Cc1nsc2cc(Cl)n(C)c(=O)c12`, the TGI in assay [1], in assay [2], in assay [3], in assay [4], in assay [5] and in assay [6] was greater than 100 µM in each case. Further, the TGI in assay [7] is greater than 100 µM; in assay [8], greater than 100 µM; in assay [9], greater than 100 µM; in assay [10] it was 69.3 µM.

As to `Cc1ccc(S(=O)(=O)NC(=O)Nc2ncn[nH]2)cc1`, the TGI in assay [1], in assay [2], in [3], in [4], in [5] and in assay [6] was greater than 100 µM throughout. The TGI in assay [7], in assay [8], in [9] and in [10] was greater than 100 µM throughout.

Consider `Cc1ccccc1-c1cc(=O)c2cc(C)c(C)c(C(=O)O)c2o1`, for which the TGI in [1], in assay [2], in assay [3], in assay [4], in [5] and in assay [6] was greater than 100 µM in each case. In addition, the TGI in assay [7], in assay [8], in assay [9] and in assay [10] was greater than 100 µM throughout.

Turning to `NNC(=S)N/N=C(\c1nc2ccc(Cl)cc2[nH]c1=O)C(O)c1cccc([N+](=O)[O-])c1` (centres undefined), the TGI is greater than 100 µM in [1]; greater than 62.5 µM in assay [2]; greater than 100 µM in [3]; greater than 94.3 µM in [4]; greater than 100 µM in [5]; greater than 100 µM in assay [6]. For the same compound, the TGI in assay [7] was greater than 58.4 µM; in [8], greater than 100 µM; in assay [9], greater than 100 µM; in [10], greater than 100 µM.

Turning to `CCOC(=O)c1nc2sc(Cl)cn2c1/C=N/N=C(N)N`, the GI50 in assay [1] was 20 µM; in [2], 18.6 µM; in assay [3] it was 26.1 µM; in assay [4], 26.1 µM; in assay [5], 26.3 µM; in assay [6] it was 28.2 µM. Besides, the GI50 in [7] is 15.1 µM; in assay [8], 18.3 µM; in [9], 22.2 µM; in [10], 20.5 µM. In addition, the TGI in assay [1] is 40.8 µM; in assay [2], 39.8 µM; in [3] it was 61.6 µM; in assay [4], greater than 100 µM; in [5] it was greater than 55.1 µM; in [6], greater than 59.6 µM. Moreover, the TGI is 37.9 µM in assay [7], 35.6 µM in assay [8], 47.6 µM in assay [9] and 47.1 µM in assay [10].

As for `O=c1oc2cc(O)ccc2cc1-c1nc2ccccc2o1`, the TGI in assay [1] is 78.3 µM; in assay [2] it was greater than 100 µM; in assay [3], greater than 100 µM; in assay [4], 70.6 µM; in [5], greater than 100 µM; in assay [6] it was greater than 100 µM. The TGI in assay [7] was 80.3 µM; in assay [8] it was 80.2 µM; in assay [9], greater than 100 µM; in assay [10], 56.1 µM.

Regarding `O=C1c2c[n+](Cc3ccccc3)ccc2-c2nc3ccccc3c3ccnc1c23`, the GI50 was 0.548 µM in assay [1]; 0.829 µM in assay [2]; 1.28 µM in [3]; 0.72 µM in [4]; 0.537 µM in assay [5]; 0.0673 µM in [6]. Also, the GI50 is 0.409 µM in [7], 0.756 µM in assay [8], 0.818 µM in assay [9] and 0.518 µM in [10]. For the same compound, the TGI in [1] was determined as 1.9 µM; in assay [2], 2.76 µM; in assay [3] it was 4.79 µM; in [4], 1.93 µM; in assay [5], 3.07 µM; in assay [6], 0.499 µM. Further, the TGI in assay [7] turned out to be 1.11 µM; in [8], 17 µM; in assay [9], 2.8 µM; in assay [10], 1.65 µM.

For `Cc1nc2ccccc2c(/C=C/c2ccc(C(F)(F)F)cc2)c1C(=O)/C=C/c1ccccc1`, the GI50 in assay [1] is 1.32 µM; in [2], 1.58 µM; in assay [3], 1.61 µM; in [4], 1.94 µM; in assay [5], 1.6 µM; in assay [6], 1.13 µM. Further, the GI50 in assay [7] was 1.55 µM; in [8] it was 1.08 µM; in assay [9], 2.05 µM; in assay [10] it was 1.33 µM. Also, the TGI stood at 2.98 µM in assay [1]; 3.07 µM in assay [2]; 2.99 µM in assay [3]; 4.44 µM in assay [4]; 3.14 µM in assay [5]; 2.57 µM in assay [6]. Also, the TGI in assay [7] stood at 3.82 µM; in assay [8], 2.27 µM; in [9] it was 3.63 µM; in [10] it was 3.07 µM.

Regarding `CN(C)Cc1c[nH]c2nc[nH]c(=O)c12`, the TGI in [1] was 85.8 µM; in assay [2], 76.4 µM; in assay [3] it was greater than 100 µM; in assay [4], 42.4 µM; in assay [5], greater than 100 µM; in assay [6] it was 61 µM. For the same compound, the TGI in [7], in [8], in assay [9] and in [10] was greater than 100 µM in each case.

In the case of `Oc1ccc(Br)cc1C=Nc1ccc(Oc2ccc(N=Cc3cc(Br)ccc3O)cc2)cc1`, the TGI in assay [1], in [2], in assay [3], in assay [4], in [5] and in assay [6] was greater than 19.6 µM each time. Also, the TGI in assay [7], in assay [8], in [9] and in assay [10] was greater than 19.6 µM throughout.

As for `CC(=O)OC1CCC2(C)C(=CCC3C2CCC2(C)C3CC3OC4(CCC(C)CN4)C(C)C32)C1` (centres undefined), the TGI in assay [1], in assay [2], in assay [3], in assay [4], in assay [5] and in assay [6] was greater than 100 µM throughout. For the same compound, the TGI in [7], in assay [8], in [9] and in assay [10] was greater than 100 µM throughout.

As for `COc1ccc(C)cc1-c1ccc(-c2cc(C)ccc2OC)o1`, the TGI in [1], in assay [2], in assay [3], in assay [4], in assay [5] and in [6] was greater than 100 µM each time. Besides, the TGI in assay [7], in assay [8], in [9] and in assay [10] was greater than 100 µM each time.

As to `Nc1ncnc2c1ncn2C1OC(F)(COS(N)(=O)=O)C(O)C1O` (centres undefined), the GI50 in [1] was 36.3 µM; in assay [2], greater than 100 µM; in assay [3], greater than 100 µM; in assay [4], greater than 100 µM; in assay [5], greater than 100 µM; in [6] it was greater than 100 µM. For the same compound, the GI50 in [7], in assay [8], in [9] and in [10] was greater than 100 µM each time. In addition, the TGI in assay [1], in [2], in assay [3], in assay [4], in [5] and in [6] was greater than 100 µM throughout. Besides, the TGI in assay [7], in assay [8], in [9] and in assay [10] was greater than 100 µM throughout.

For the compound `CC12CC(Br)(Br)C(=O)C3C1CCCC32`, the TGI turned out to be 6.19 µM in [1]; 9.32 µM in [2]; 19.1 µM in assay [3]; 9.33 µM in assay [4]; 27.2 µM in assay [5]; 31.7 µM in [6]. Moreover, the TGI amounted to 5.16 µM in assay [7], 15 µM in assay [8], 12.5 µM in [9] and 7.84 µM in assay [10].

For `C(#Cc1ccccc1C#Cc1cnccn1)c1cnccn1`, the GI50 in assay [1] is 79.5 µM; in assay [2], 30.5 µM; in [3] it was 35.3 µM; in assay [4] it was 9.32 µM; in [5], 28.1 µM; in [6], 18.3 µM. For the same compound, the GI50 in [7] is 54.8 µM; in assay [8], greater than 40.3 µM; in [9], 27.2 µM; in assay [10] it was greater than 39.2 µM. Further, the TGI in assay [1] was greater than 100 µM; in assay [2] it was greater than 100 µM; in [3], greater than 100 µM; in assay [4], 22.5 µM; in assay [5], greater than 78.4 µM; in assay [6], greater than 71.9 µM. The TGI was greater than 100 µM in assay [7], greater than 68.4 µM in [8], greater than 78.2 µM in assay [9] and greater than 61.7 µM in [10].

For `O=C(O)C(Cc1ccc(O)cc1)N=Cc1nc(-c2ccccc2)oc1O` (centres undefined), the TGI in [1], in assay [2], in assay [3], in [4], in [5] and in [6] was greater than 100 µM in each case. In addition, the TGI in assay [7], in [8], in assay [9] and in assay [10] was greater than 100 µM each time.

`O=C(O)CC(CC(=O)O)n1cccc1`: the TGI in [1], in assay [2], in assay [3], in assay [4], in assay [5] and in assay [6] was greater than 100 µM in each case. Further, the TGI in assay [7], in assay [8], in [9] and in [10] was greater than 100 µM each time.

`COc1cccc2c1C(=O)c1c(O)c3c(c(O)c1C2=O)C[C@@](O)(C(=O)CO)C[C@@H]3OC1CC2C(OCN2CN2COC3C(C)OC(O[C@H]4C[C@](O)(C(=O)CO)Cc5c(O)c6c(c(O)c54)C(=O)c4c(OC)cccc4C6=O)CC32)C(C)O1` (some centres undefined): the GI50 is 0.00606 µM in [1]; 0.00274 µM in [2]; 0.0393 µM in assay [3]; 0.000329 µM in assay [4]; 0.00981 µM in assay [5]; 0.000207 µM in assay [6]. The GI50 was 0.00664 µM in assay [7], 0.00304 µM in assay [8], 0.0205 µM in assay [9] and 0.00638 µM in assay [10]. Further, the TGI in assay [1] is greater than 0.293 µM; in assay [2], 0.0343 µM; in [3] it was greater than 1 µM; in assay [5], 0.0584 µM; in assay [6] it was 0.0864 µM; in assay [7], 0.0216 µM. The values for the TGI in assay [8], in assay [9] and in assay [10] were 0.0283 µM, 0.0752 µM and 0.0238 µM, respectively.

Source of the values: PubChem BioAssay (NCI).
